In ChEMBL document CHEMBL6078622, “Enhancing outer membrane permeability of tetracycline antibiotics in P. aeruginosa using TOB-CIP conjugates” (RSC Med Chem, 2024):
Activity calls are given as the source filed them. No cut-off for these calls is given here.

Tests used:
Pseudomonas aeruginosa [1] = assay: Antibacterial activity against Pseudomonas aeruginosa PA100036 assessed as tigecycline MIC by CLSI based broth-microdilution method; format: functional
Pseudomonas aeruginosa [2] = assay: Antibacterial activity against Pseudomonas aeruginosa PA114228 assessed as inhibition of visible bacterial growth by CLSI based broth-microdilution method; format: functional
Pseudomonas aeruginosa [3] = assay: Synergistic antibacterial activity against Pseudomonas aeruginosa PA095 assessed as fold change in minocycline MIC by CLSI based broth-microdilution method relative to minocycline alone; format: functional
Pseudomonas aeruginosa [4] = assay: Synergistic antibacterial activity against Pseudomonas aeruginosa PAO1 assessed as fold change in doxycycline MIC by checkerboard analysis relative to doxycycline alone; format: functional
Pseudomonas aeruginosa [5] = assay: Synergistic antibacterial activity against Pseudomonas aeruginosa PA114228 assessed as fold change in tigecycline MIC by CLSI based broth-microdilution method relative to tigecycline alone; format: functional
Pseudomonas aeruginosa [6] = assay: Synergistic antibacterial activity against Pseudomonas aeruginosa PA100036 assessed as fold change in minocycline MIC by CLSI based broth-microdilution method relative to minocycline alone; format: functional
HEK293 = assay: Cytotoxicity against HEK293 cells assessed as reduction in cell viability at 162 uM; format: toxicity, cell-based; details: human, hek293, 162 µM
Pseudomonas aeruginosa [7] = assay: Antibacterial activity against Pseudomonas aeruginosa PA262 assessed as doxycycline MIC by CLSI based broth-microdilution method; format: functional
Pseudomonas aeruginosa [8] = assay: Antibacterial activity against Pseudomonas aeruginosa PA100036 assessed as minocycline MIC by CLSI based broth-microdilution method; format: functional
Pseudomonas aeruginosa [9] = assay: Antibacterial activity against Pseudomonas aeruginosa PA200 assessed as doxycycline MIC by CLSI based broth-microdilution method; format: functional
Pseudomonas aeruginosa [10] = assay: Synergistic antibacterial activity against Pseudomonas aeruginosa PA101243 assessed as fractional inhibitory concentration index in presence of tigecycline by checkerboard assay; format: functional
Pseudomonas aeruginosa [11] = assay: Synergistic antibacterial activity against Pseudomonas aeruginosa PAO1 assessed as fold change in minocycline MIC by checkerboard analysis relative to minocycline alone; format: functional
Pseudomonas aeruginosa [12] = assay: Synergistic antibacterial activity against Pseudomonas aeruginosa PA114228 assessed as fractional inhibitory concentration index in presence of eravacycline by checkerboard assay; format: functional
Pseudomonas aeruginosa [13] = assay: Synergistic antibacterial activity against Pseudomonas aeruginosa PA100036 in presence of tigecycline by checkerboard assay; format: functional
Pseudomonas aeruginosa [14] = assay: Antibacterial activity against Pseudomonas aeruginosa PA264 assessed as inhibition of visible bacterial growth by CLSI based broth-microdilution method; format: functional
Pseudomonas aeruginosa [15] = assay: Antibacterial activity against Pseudomonas aeruginosa PA264 assessed as increase in bacterial load incubated for 2 hrs in presence of eravacycline by time kill assay; format: functional, organism-based
Pseudomonas aeruginosa [16] = assay: Antibacterial activity against Pseudomonas aeruginosa PA259 assessed as eravacycline MIC by CLSI based broth-microdilution method; format: functional
Pseudomonas aeruginosa [17] = assay: Synergistic antibacterial activity against Pseudomonas aeruginosa PA264 assessed as fold change in eravacycline MIC by CLSI based broth-microdilution method relative to eravacycline alone; format: functional
Pseudomonas aeruginosa [18] = assay: Antibacterial activity against Pseudomonas aeruginosa PA101243 assessed as doxycycline MIC by CLSI based broth-microdilution method; format: functional
Pseudomonas aeruginosa [19] = assay: Synergistic antibacterial activity against Pseudomonas aeruginosa PA200 in presence of eravacycline by checkerboard assay; format: functional
Pseudomonas aeruginosa [20] = assay: Synergistic antibacterial activity against Pseudomonas aeruginosa PA114228 assessed as fractional inhibitory concentration index in presence of minocycline by checkerboard assay; format: functional
Pseudomonas aeruginosa [21] = assay: Antibacterial activity against Pseudomonas aeruginosa PA259 assessed as doxycycline MIC by CLSI based broth-microdilution method; format: functional
Pseudomonas aeruginosa [22] = assay: Synergistic antibacterial activity against Pseudomonas aeruginosa PA095 assessed as fold change in eravacycline MIC by CLSI based broth-microdilution method relative to eravacycline alone; format: functional
Pseudomonas aeruginosa [23] = assay: Synergistic antibacterial activity against Pseudomonas aeruginosa PA264 assessed as fractional inhibitory concentration index in presence of eravacycline by checkerboard assay; format: functional
Pseudomonas aeruginosa [24] = assay: Synergistic antibacterial activity against Pseudomonas aeruginosa PA101243 assessed as fold change in doxycycline MIC by CLSI based broth-microdilution method relative to doxycycline alone; format: functional
Pseudomonas aeruginosa [25] = assay: Synergistic antibacterial activity against Pseudomonas aeruginosa PA259 assessed as fold change in doxycycline MIC by CLSI based broth-microdilution method relative to doxycycline alone; format: functional
Pseudomonas aeruginosa [26] = assay: Synergistic antibacterial activity against Pseudomonas aeruginosa PA262 in presence of eravacycline by checkerboard assay; format: functional
Pseudomonas aeruginosa [27] = assay: Antibacterial activity against Pseudomonas aeruginosa PA259 assessed as reduction in bacterial load by time kill assay; format: functional, organism-based
Pseudomonas aeruginosa [28] = assay: Antibacterial activity against Pseudomonas aeruginosa PA200 assessed as eravacycline MIC by CLSI based broth-microdilution method; format: functional
Pseudomonas aeruginosa [29] = assay: Antibacterial activity against Pseudomonas aeruginosa PA259 assessed as tigecycline MIC by CLSI based broth-microdilution method; format: functional
Pseudomonas aeruginosa [30] = assay: Synergistic antibacterial activity against Pseudomonas aeruginosa PA262 assessed as fractional inhibitory concentration index in presence of minocycline by checkerboard assay; format: functional
Pseudomonas aeruginosa [31] = assay: Synergistic antibacterial activity against Pseudomonas aeruginosa PA262 in presence of minocycline by checkerboard assay; format: functional
Pseudomonas aeruginosa [32] = assay: Antibacterial activity against Pseudomonas aeruginosa PA259 assessed as inhibition of visible bacterial growth by CLSI based broth-microdilution method; format: functional
Pseudomonas aeruginosa [33] = assay: Synergistic antibacterial activity against Pseudomonas aeruginosa PA114228 in presence of doxycycline by checkerboard assay; format: functional
Pseudomonas aeruginosa [34] = assay: Antibacterial activity against Pseudomonas aeruginosa PA095 assessed as tigecycline MIC by CLSI based broth-microdilution method; format: functional
Pseudomonas aeruginosa [35] = assay: Synergistic antibacterial activity against Pseudomonas aeruginosa PA100036 assessed as fractional inhibitory concentration index in presence of minocycline by checkerboard assay; format: functional
Pseudomonas aeruginosa [36] = assay: Synergistic antibacterial activity against Pseudomonas aeruginosa PA264 in presence of doxycycline by checkerboard assay; format: functional
Pseudomonas aeruginosa [37] = assay: Synergistic antibacterial activity against Pseudomonas aeruginosa PA100036 assessed as fractional inhibitory concentration index in presence of doxycycline by checkerboard assay; format: functional
Pseudomonas aeruginosa [38] = assay: Synergistic antibacterial activity against Pseudomonas aeruginosa PA264 assessed as fold change in minocycline MIC by CLSI based broth-microdilution method relative to minocycline alone; format: functional
Pseudomonas aeruginosa [39] = assay: Synergistic antibacterial activity against Pseudomonas aeruginosa PA114228 assessed as fractional inhibitory concentration index in presence of tigecycline by checkerboard assay; format: functional
Pseudomonas aeruginosa [40] = assay: Synergistic antibacterial activity against Pseudomonas aeruginosa PA095 assessed as fractional inhibitory concentration index in presence of tigecycline by checkerboard assay; format: functional
Pseudomonas aeruginosa [41] = assay: Synergistic antibacterial activity against Pseudomonas aeruginosa PA259 in presence of eravacycline by checkerboard assay; format: functional
Pseudomonas aeruginosa [42] = assay: Synergistic antibacterial activity against Pseudomonas aeruginosa PA200 assessed as fractional inhibitory concentration index in presence of eravacycline by checkerboard assay; format: functional
Pseudomonas aeruginosa [43] = assay: Antibacterial activity against Pseudomonas aeruginosa PA264 assessed as minocycline MIC by CLSI based broth-microdilution method; format: functional
Pseudomonas aeruginosa [44] = assay: Synergistic antibacterial activity against Pseudomonas aeruginosa PA262 assessed as fractional inhibitory concentration index in presence of tigecycline by checkerboard assay; format: functional
Pseudomonas aeruginosa [45] = assay: Synergistic antibacterial activity against Pseudomonas aeruginosa PA101243 in presence of minocycline by checkerboard assay; format: functional

`Cl.Cl.Cl.Cl.Cl.Cl.NC[C@H]1O[C@H](O[C@H]2[C@H](OCCCCCCCCCCCCNC(=O)c3cn(C4CC4)c4cc(N5CCNCC5)c(F)cc4c3=O)[C@@H](O[C@H]3O[C@H](CO)[C@@H](O)[C@H](N)[C@H]3O)[C@H](N)C[C@@H]2N)[C@H](N)C[C@@H]1O` was tested. Which MIC (Pseudomonas aeruginosa [1]) did it give?
The MIC was 0.5 µg/mL.

And the MIC (Pseudomonas aeruginosa [2])?
Its MIC is over 128 µg/mL.

And the “fold change (FC)” value (Pseudomonas aeruginosa [3])?
The value was 8.

What about the “fold change (FC)” value (Pseudomonas aeruginosa [4]) of the same molecule?
Its value is 64.

What about the “fold change (FC)” value (Pseudomonas aeruginosa [5]) of the same molecule?
The value was 128.

What about the “fold change (FC)” value (Pseudomonas aeruginosa [6]) of the same molecule?
The value was 256.

And the Activity (HEK293)?
The Activity was 60%.

And the MIC (Pseudomonas aeruginosa [7])?
The MIC was 8 µg/mL.

What about the MIC (Pseudomonas aeruginosa [8]) of the same molecule?
Its MIC is 0.25 µg/mL.

What about the MIC (Pseudomonas aeruginosa [9]) of the same molecule?
Its MIC is 2 µg/mL.

What about the “fractional inhibitory concentration index (FICI)” value (Pseudomonas aeruginosa [10]) of the same molecule?
The value was 0.125.

And the “fold change (FC)” value (Pseudomonas aeruginosa [11])?
The value was 64.

What about the “fractional inhibitory concentration index (FICI)” value (Pseudomonas aeruginosa [12]) of the same molecule?
Its value is 0.5.

What about the MIC (Pseudomonas aeruginosa [13]) of the same molecule?
The MIC was 8 µg/mL.

And the MIC (Pseudomonas aeruginosa [14])?
Its MIC is over 128 µg/mL.

What about the Activity (Pseudomonas aeruginosa [15]) of the same molecule?
Its Activity is “Active”.

And the MIC (Pseudomonas aeruginosa [16])?
The MIC was 0.062 µg/mL.

And the “fold change (FC)” value (Pseudomonas aeruginosa [17])?
Its value is 64.

What about the MIC (Pseudomonas aeruginosa [18]) of the same molecule?
The MIC was 1 µg/mL.

And the MIC (Pseudomonas aeruginosa [19])?
Its MIC is 8 µg/mL.

And the “fractional inhibitory concentration index (FICI)” value (Pseudomonas aeruginosa [20])?
The value was 0.008.

And the MIC (Pseudomonas aeruginosa [21])?
Its MIC is 0.5 µg/mL.

And the “fold change (FC)” value (Pseudomonas aeruginosa [22])?
The value was 4.

And the “fractional inhibitory concentration index (FICI)” value (Pseudomonas aeruginosa [23])?
Its value is 0.008.

What about the “fold change (FC)” value (Pseudomonas aeruginosa [24]) of the same molecule?
The value was 2.

What about the “fold change (FC)” value (Pseudomonas aeruginosa [25]) of the same molecule?
Its value is 128.

And the MIC (Pseudomonas aeruginosa [26])?
The MIC was 8 µg/mL.

And the AC30 (Pseudomonas aeruginosa [27])?
Its AC30 is “Active”.

And the MIC (Pseudomonas aeruginosa [28])?
The MIC was 0.031 µg/mL.

What about the MIC (Pseudomonas aeruginosa [29]) of the same molecule?
Its MIC is 0.5 µg/mL.

And the “fractional inhibitory concentration index (FICI)” value (Pseudomonas aeruginosa [30])?
Its value is 0.008.

And the MIC (Pseudomonas aeruginosa [31])?
Its MIC is 8 µg/mL.

And the MIC (Pseudomonas aeruginosa [32])?
Its MIC is over 128 µg/mL.

And the MIC (Pseudomonas aeruginosa [33])?
Its MIC is 8 µg/mL.

What about the MIC (Pseudomonas aeruginosa [34]) of the same molecule?
Its MIC is 2 µg/mL.

What about the “fractional inhibitory concentration index (FICI)” value (Pseudomonas aeruginosa [35]) of the same molecule?
The value was 0.015.

What about the MIC (Pseudomonas aeruginosa [36]) of the same molecule?
The MIC was 8 µg/mL.

What about the “fractional inhibitory concentration index (FICI)” value (Pseudomonas aeruginosa [37]) of the same molecule?
Its value is 0.004.

And the “fold change (FC)” value (Pseudomonas aeruginosa [38])?
Its value is 128.

What about the “fractional inhibitory concentration index (FICI)” value (Pseudomonas aeruginosa [39]) of the same molecule?
Its value is 0.25.

And the “fractional inhibitory concentration index (FICI)” value (Pseudomonas aeruginosa [40])?
The value was 0.265.

What about the MIC (Pseudomonas aeruginosa [41]) of the same molecule?
The MIC was 8 µg/mL.

And the “fractional inhibitory concentration index (FICI)” value (Pseudomonas aeruginosa [42])?
Its value is 0.156.

And the MIC (Pseudomonas aeruginosa [43])?
The MIC was 0.5 µg/mL.

And the “fractional inhibitory concentration index (FICI)” value (Pseudomonas aeruginosa [44])?
The value was 0.008.

And the MIC (Pseudomonas aeruginosa [45])?
Its MIC is 8 µg/mL.
